Read-outs that look alike come from different tables or passages of the source.

The test system of one data set is adult spider mite. Put plainly: Determination of acaricidal activity against adult spider mite (bean leaf spray, 72 h mortality). The class given is in vivo. The conditions noted are these: after 72 hours. The procedure:
According to the solubility of test compounds, the compounds are dissolved in acetone or dimethyl sulfoxide, and then diluted with 0.1% aqueous solution of Tween 80 to form a required concentration of 50 ml test liquid. The content of the acetone or the dimethyl sulfoxide in the total solution is not more than 10%.
The adult spider mites were put into two true leaves of bean plants. After the number of mites was investigated, the solution of certain concentrations of test compounds was sprayed by using a handheld Airbrush. Three replicates were set for each treatment. Then the leaves were maintained in a standard observation room. After 72 hours, the number of surviving mites was observed, and the mortality rate was calculated.

Another data set relates to armyworm. In words: Determination of activity against armyworm (corn leaf dip, third instar, 72 h mortality). The conditions noted are these: foliar; for mortality at 0.1 µg/mL: read-out: Mortality rate (%) 0.1 mg/L. The class given is in vivo. How it is done: (§1) According to the solubility of test compounds, the compounds are dissolved in acetone or dimethyl sulfoxide, and then diluted with 0.1% aqueous solution of Tween 80 to form a required concentration of 50 ml test liquid, The content of the acetone or the dimethyl sulfoxide in the total solution is not more than 10%.
The middle leaves of fresh corns were cut into small sections of 3 cm, and dipped into a solution of the required concentration of test compounds for 10 seconds. After dried in shade, the middle leaves were placed in a 9 cm diameter petri dish provided with filter paper. Fourteen regular healthy test insects (third instar) were put into the leaves. Four replicates were set for each treatment. The pure water treatment was set as control check. The treated discs were placed in a chamber of is 24° C., 60%-70% relative humidity and day light. After 72 hours, the number of surviving insects was investigated, and the mortality rate was calculated.

A further data set deals with diamondback moth. In words: Determination of activity against diamondback moth (cabbage leaf disc dip, second instar, 72 h mortality). The conditions noted are these: Plutella xylostella, foliar, 1 mg/L, read-out: mortality rates against diamondback moth. The class given is in vivo. The procedure: as §1
The leaves of cabbage grown in greenhouse were selected, removed the surface waxy layers, punched into circular leaf discs with a diameter of 2 cm by using a puncher, and dipped into a solution of the required concentration of test compounds for 10 seconds. After dried in shade, the circular leaf discs were placed in a 9 cm diameter petri dish provided with filter paper. Ten regular healthy test insects (second instar) were put into the leaf discs. Four replicates were set for each treatment. The pure water treatment was set as control check. The treated discs were placed in a chamber of 24° C., 60%-70% relative humidity and day light. After 72 hours, the number of surviving insects was investigated, and the mortality rate was calculated.

For the next data set, the system named is beet armyworm. Put plainly: Determination of activity against beet armyworm (cabbage leaf disc spray, third instar, 96 h mortality). It is filed as in vivo. The conditions noted are these: after 96 hours. How it is done:
as §1
The cabbage leaves were punched into circular leaf discs with a diameter of 1 cm by using a puncher. A certain concentration of test compound was sprayed on both sides of each leaf disc at a spray volume of 0.5 ml by a handheld Airbrush. After the leaf discs were dried in shade, 12 test insects (third instar) were put into the leaf discs. Three replicates were set for each treatment. The pure water treatment was set as control check. The treated discs were placed in a chamber of 24° C., 60%-70% relative humidity and day light. After 96 hours, the number of surviving insects was investigated, and the mortality rate was calculated. See Table 2 for parallel determination results of activity of compounds 1-8 and KC2 (compound 3-1 in U.S. Pat. No. 8,853,440B2) against beet armyworm.

Another data set has as its system green peach aphid. In words: Determination of activity against green peach aphid (cabbage leaf spray, 48 h mortality). It is filed as in vivo. The conditions noted are these: Myzus persicae, 10 mg/L, read-out: mortality rates against green peach aphid. How it is done: as §1
A layer of filter paper was covered on the bottom of the 6 cm diameter petri dish. To the petri dish, a proper amount of tap water was added dropwise for moisture retention. Cabbage leaves, on which 15-30 aphids exist, with a suitable size (about 3 cm in diameter) were cut from the cabbage plants breeding peach aphids. After winged aphids and the aphids on the front surface of the leaves were removed, the leaves were placed in the petri dish in a manner of backing on to the petri dish, and sprayed with a handheld Airbrush, with a pressure of 10 psi (about 0.7 kg/cm^2) and a spray volume of 0.5 ml, Three replicates were set for each treatment. After treatment, the cabbage leaves were placed in a standard observation room. After 48 hours, the number of surviving aphids was investigated, and the mortality rate was calculated.

For the next data set, the system named is rice leaf folder. In words: Determination of activity against rice leaf folder in field trial (foliar spray, 15 days mortality). The conditions noted are these: after 15 days. It is filed as in vivo. How it is done:
A certain concentration of test compounds was sprayed on the leaf surfaces in the peak of the hatching period of the rice leaf folders, with a spray volume of 450 L per hectare. The area of a rice plot was 32 square meters. Three replicates were set for each treatment. After 15 days, the number of surviving rice leaf folders was investigated, and the mortality rate was calculated. See Table 3 for parallel determination results of activity of compounds I-8 and KC2 against rice leaf folder.

For a further data set, the system named is housefly larva. In words: Determination of activity against housefly larva (feed poisoning method, third instar, 72 h mortality). It is filed as in vivo. The settings on record: after 72 hours. The procedure: Third instar housefly larvae were tested by a feed poisoning method. 1000 mg/L, of acetone solution of the test compounds was diluted into a required concentration of test liquid by using a certain concentration of milk powder emulsion according to a test design dose. The test liquid was uniformly added to a 6 cm diameter petri dish provided with filter paper by using a pipette, with 1 ml per dish. The third instar housefly larvae were put into the petri dish. Three replicates were set for each treatment. Then the petri dishes were maintained in a standard observation room. After 72 hours, the number of surviving housefly larvae was investigated, and the mortality rate was calculated. See Table 5 for parallel determination results of activity of compounds I-51 and KC2 against housefly larva.

The test system of another data set is Plutella xylostella. The conditions noted are these: 100 ppm; disclosed in WO2005073165A1, US2007275980A1, US20140206727A1; cited from earlier work.
For the next data set, the system named is Spodoptera litura. The conditions noted are these: 100 ppm; disclosed in WO2005073165A1, US2007275980A1, US20140206727A1; cited from earlier work.
Where [1] appears, read: 0.3 mg/L, 72 hours, read-out: mortality rates against armyworm.
Setting [2] is: 0.1 mg/L, armyworm, 72 hours, parallel determination.
[3] abbreviates: 0.3 mg/L, armyworm, 72 hours, parallel determination, read-out: Mortality rate (%) 0.3 mg/L.

`O=C(Nc1cccc(C(=O)Nc2ccc(C(F)(C(F)(F)F)C(F)(F)F)cc2)c1F)c1ccc2c(c1)OC(F)(F)O2` [Compound C1]: the “Mortality rate (%)” value in the data set on adult spider mite (10 mg/L), in the data set on adult spider mite (100 mg/L) and in the data set on adult spider mite (600 mg/L) was 0% in each case.

In the case of `O=C(Nc1cccc(C(=O)Nc2c(Br)cccc2Br)c1F)c1ccc2c(c1)OC(F)(F)O2` [Compound C2], the “Mortality rate (%)” value with adult spider mite (10 mg/L), in the data set on adult spider mite (100 mg/L) and in the data set with adult spider mite (600 mg/L) was 0% each time.

Take `O=C(Nc1cccc(C(=O)Nc2c(Br)cc(C(F)(C(F)(F)F)C(F)(F)F)cc2C(F)(F)F)c1F)c1ccc2c(c1)OC(F)(F)O2` [Compound I-2]: the mortality at 0.3 µg/mL in the data set with armyworm (setting [1]) was above 90%. Besides, the mortality at 1 µg/mL in the data set with diamondback moth was above 90%.

`O=C(Nc1cccc(C(=O)Nc2c(Br)cc(C(F)(C(F)(F)F)C(F)(F)F)cc2I)c1F)c1ccc2c(c1)OC(F)(F)O2` [Compound I-5, N-(2-bromo-6-iodo-4-perfluoroisopropylphenyl)-3-(2,2-difluoro-1,3-benzodioxole-5-carboxamido)-2-fluorobenzamide]: the mortality at 0.3 µg/mL in the data set on armyworm (setting [1]) is above 90%. For the same compound, the mortality at 1 µg/mL with diamondback moth was above 90%.

As for `O=C(Nc1cccc(C(=O)Nc2c(Br)cc(C(F)(C(F)(F)F)C(F)(F)F)cc2Br)c1F)c1ccc2c(c1)OC(F)(F)O2` [Compound I-8], in the data set on armyworm (setting [2]), the mortality at 0.1 µg/mL amounted to 100%. In addition, the mortality at 0.3 µg/mL was above 90% in the data set with armyworm (setting [1]) and 100% in the data set on armyworm (setting [3]). Also, in the data set with diamondback moth, the mortality at 1 µg/mL was above 90%. In addition, the “Mortality rate (%)” value in the data set with adult spider mite (10 mg/L) is listed as 93.3%; in the data set with adult spider mite (100 mg/L), 100%; in the data set with adult spider mite (600 mg/L), 100%; in the data set with beet armyworm (0.2 mg/L), 83.3%; with beet armyworm (1 mg/L) it was 91.7%; with rice leaf folder (30 g/ha), 83%. The “Mortality rate (%)” value with rice leaf folder (45 g/ha) came to 85%. Moreover, the mortality at 10 µg/mL in the data set on green peach aphid is above 80%.

Turning to `CN(C(=O)c1ccc2c(c1)OC(F)(F)O2)c1cccc(C(=O)Nc2c(I)cc(C(F)(C(F)(F)F)C(F)(F)F)cc2I)c1F` [Compound I-44], the mortality at 0.3 µg/mL in the data set with armyworm (setting [1]) is above 90%. Also, the mortality at 1 µg/mL in the data set on diamondback moth was above 90%.

For the compound `CN(C(=O)c1ccc2c(c1)OC(F)(F)O2)c1cccc(C(=O)Nc2c(Br)cc(C(F)(C(F)(F)F)C(F)(F)F)cc2C(F)(F)F)c1F` [Compound I-45, N-(2-bromo-4-heptafluoroisopropyl-6-trifluoromethylphenyl)-2-fluoro-3-(N-methyl-2,2-difluoro-1,3-benzodioxole-5-carboxamido) Benzamide], the mortality at 0.3 µg/mL in the data set on armyworm (setting [1]) is above 90%. Also, the mortality at 1 µg/mL in the data set on diamondback moth was above 90%.

As for `CN(C(=O)c1ccc2c(c1)OC(F)(F)O2)c1cccc(C(=O)Nc2c(Br)cc(C(F)(C(F)(F)F)C(F)(F)F)cc2I)c1F` [Compound I-48, N-(2-bromo-6-iodo-4-perfluoroisopropylphenyl)-2-fluoro-3-(N-methyl-2,2-difluoro-1,3-benzodioxole-5-carboxamido)benzamide], the mortality at 0.3 µg/mL in the data set with armyworm (setting [1]) is above 90%. Further, in the data set with diamondback moth, the mortality at 1 µg/mL is above 90%.

With `CN(C(=O)c1ccc2c(c1)OC(F)(F)O2)c1cccc(C(=O)Nc2c(Br)cc(C(F)(C(F)(F)F)C(F)(F)F)cc2Br)c1F` [Compound I-51, N-(2,6-dibromide-4-heptafluoroisopropylphenyl)-2-fluoro-3-(N-methyl-2,2-difluoro-1,3-benzodioxole-5-carboxamido)benzamide], the mortality at 0.1 µg/mL in the data set with armyworm (setting [2]) is 85.7%. Further, the results for the mortality at 0.3 µg/mL in the data set with armyworm (setting [1]) and in the data set with armyworm (setting [3]) were above 90% and 100%, respectively. Moreover, in the data set on diamondback moth, the mortality at 1 µg/mL is above 90%. The figures for the “Mortality rate (%)” value in the data set with housefly larva (1 mg/L), in the data set with housefly larva (3 mg/L) and in the data set on housefly larva (10 mg/L) were 75%, 90.5% and 100%, respectively. Further, the mortality at 10 µg/mL in the data set with green peach aphid is above 80%.

Turning to `Cc1cc(C(F)(C(F)(F)F)C(F)(F)F)cc(C)c1NC(=O)c1cccc(NC(=O)c2ccc3c(c2)OC(F)(F)O3)c1` [KC1], the mortality at 0.1 µg/mL in the data set with armyworm (72 h) was 0%. In the data set on armyworm (72 h, read-out: Mortality rate (%) 0.3 mg/L), the mortality at 0.3 µg/mL turned out to be 0%. Moreover, the “mortality rates against Plutella xylostella” value in the data set with Plutella xylostella is listed as at least 70%. For the same compound, the “mortality rates against Spodoptera litura” value with Spodoptera litura is at least 70%. In addition, the “Mortality rate (%)” value in the data set on adult spider mite (10 mg/L), with adult spider mite (100 mg/L) and in the data set with adult spider mite (600 mg/L) was 0% throughout.

In the case of `CN(C(=O)c1ccccc1)c1cccc(C(=O)Nc2c(Br)cc(C(F)(C(F)(F)F)C(F)(F)F)cc2C(F)(F)F)c1F` [KC2, Broflanilide, reference compound], the “Mortality rate (%)” value was found to be 50% in the data set with housefly larva (1 mg/L); 69.6% in the data set on housefly larva (3 mg/L); 100% in the data set with housefly larva (10 mg/L); 0% in the data set on adult spider mite (10 mg/L); 0% in the data set on adult spider mite (100 mg/L); 0% in the data set on adult spider mite (600 mg/L). Moreover, the “Mortality rate (%)” value with beet armyworm (0.2 mg/L) was found to be 66.7%; in the data set with beet armyworm (1 mg/L), 83.3%; in the data set on rice leaf folder (30 g/ha), 79%; with rice leaf folder (45 g/ha) it was 82%.

As for `O=C(Nc1cccc(C(=O)Nc2c(Br)cc(C(F)(C(F)(F)F)C(F)(F)F)cc2Br)c1F)c1ccccc1` [KC3], in the data set on armyworm (setting [2]), the mortality at 0.1 µg/mL stood at 28.6%. Moreover, in the data set with armyworm (setting [3]), the mortality at 0.3 µg/mL was determined as 64.3%. The “Mortality rate (%)” value in the data set on adult spider mite (10 mg/L), with adult spider mite (100 mg/L) and in the data set with adult spider mite (600 mg/L) was 0% in each case.

The values above are taken from patent publication US11891371B2, “Piperonylic acid derivative and preparation and application thereof” (SHENYANG SINOCHEM AGROCHEMICALS R&D CO., LTD., priority 2017, dated 2024).
